Source: patent publication US4594337A, “Methods of controlling mycoplasma infections” (Eli Lilly and Company, priority 1985, dated 1986)
Converted amounts (≈) assume the structure as drawn.

Legend:
Type in all cases: cell-based
[1] = tested on: Mycoplasma hyorhinis S-41313; assay: MIC, conventional broth-dilution microtiter test, Mycoplasma hyorhinis S-41313; conditions: S41313
Description: (§1) The MIC's in Table I were obtained using a conventional broth-dilution microtiter test.

[2] = tested on: Mycoplasma hyopneumoniae S-5972; assay: MIC, conventional broth-dilution microtiter test, Mycoplasma hyopneumoniae S-5972; conditions: Mesomycoplasma hyopneumoniae, S5972
Description: as §1

[3] = tested on: Mycoplasma synoviae 46995; assay: MIC, conventional broth-dilution microtiter test, Mycoplasma synoviae 46995; conditions: Mycoplasmopsis synoviae
Description: as §1

[4] = tested on: Mycoplasma gallisepticum 34159; assay: MIC, conventional broth-dilution microtiter test, Mycoplasma gallisepticum 34159 (tylosin-resistant); conditions: Mycoplasmoides gallisepticum, Mycoplasma gallisepticum 34159, tylosin-resistant strain
Description: as §1

[5] = tested on: Mycoplasma gallisepticum 41313; assay: MIC, conventional broth-dilution microtiter test, Mycoplasma gallisepticum 41313 (tylosin-resistant); conditions: Mycoplasmoides gallisepticum, Mycoplasma gallisepticum 41313, tylosin-resistant strain
Description: as §1

[6] = tested on: Mycoplasma gallisepticum 38502; assay: MIC, conventional broth-dilution microtiter test, Mycoplasma gallisepticum 38502 (tylosin-susceptible); conditions: Mycoplasmoides gallisepticum, Mycoplasma gallisepticum 38502, tylosin-susceptible strain
Description: as §1

Row | MIC [1] [µg/mL] | MIC [2] [µg/mL] | MIC [3] [µg/mL] | MIC [4] [µg/mL] | MIC [5] [µg/mL] | MIC [6] [µg/mL] | SMILES
1 | 0.39 (≈ 0.385 µM) | 0.048 (≈ 0.0473 µM) | ≤ 0.048 | 6.25 (≈ 6.16 µM) | 3.12 (≈ 3.08 µM) | 0.195 (≈ 0.192 µM) | CCCC(=O)OC1C(C)OC(OC2C(C)OC(OC3C(CC=O)CC(C)C(=O)C=CC(C)=CC(COC4OC(C)C(O)C(O)C4OC)C(CC)OC(=O)CC(OC(C)=O)C3C)C(O)C2N(C)C)CC1(C)O (stereo not shown) [3-Acetyl-4"-(n-Butyryl)-macrocin, 3-O-acetyl-4"-O-(n-butyryl)macrocin]
2 | 0.39 (≈ 0.379 µM) | 0.048 (≈ 0.0467 µM) | ≤ 0.048 | 3.12 (≈ 3.03 µM) | 3.12 (≈ 3.03 µM) | ≤ 0.048 | CCC1OC(=O)CC(OC(C)=O)C(C)C(OC2OC(C)C(OC3CC(C)(O)C(OC(=O)CC(C)C)C(C)O3)C(N(C)C)C2O)C(CC=O)CC(C)C(=O)C=CC(C)=CC1COC1OC(C)C(O)C(O)C1OC (stereo not shown) [3-Acetyl-4"-Isovaleryl-macrocin, 3-O-acetyl-4"-O-isovalerylmacrocin]
3 | 25 (≈ 31.3 µM) |  | 0.39 (≈ 0.488 µM) | > 50 | 50 (≈ 62.5 µM) | 0.78 (≈ 0.975 µM) | CCC1OC(=O)CC(OC(C)=O)C(C)C(OC2OC(C)C(O)C(N(C)C)C2O)C(CC=O)CC(C)C(=O)C=CC(C)=CC1COC1OC(C)C(O)C(O)C1OC (stereo not shown) [3-Acetyl-lactenocin, 3-O-Acetyllactenocin]
4 | 6.25 (≈ 6.62 µM) |  | 0.39 (≈ 0.413 µM) | 50 (≈ 53 µM) | 50 (≈ 53 µM) | 0.78 (≈ 0.826 µM) | CCC1OC(=O)CC(OC(C)=O)C(C)C(OC2OC(C)C(OC3CC(C)(O)C(O)C(C)O3)C(N(C)C)C2O)C(CC=O)CC(C)C(=O)C=CC(C)=CC1COC1OC(C)C(O)C(O)C1OC (stereo not shown) [3-Acetyl-macrocin, 3-O-Acetylmacrocin]
